# Measured values as given in the kinase profiling compilation of Christmann-Franck et al. (2016).
# Columns and labels:
# Experiment in all cases: radiometric filter-binding kinase assay, Kinase HotSpot
# Conditions in all cases: compound 0.5 µM; ATP 10 µM
# EPHB3 (human) = EPHB3 (human) (UniProt P54753)
# TEC (human) = TEC (human) (UniProt P42680)
# [1] = test system: FLT4 (human), P35916 [Q890H]
# INSR (human) = INSR (human) (UniProt P06213)
# RET (human) = RET (human) (UniProt P07949)
# CDK1 CCNA2 (human) = CDK1 CCNA2 (human) (UniProt P06493+P20248)
# NEK1 (human) = NEK1 (human) (UniProt Q96PY6)
# FGFR4 (human) = FGFR4 (human) (UniProt P22455)
# MAPK12 (human) = MAPK12 (human) (UniProt P53778)
# Chain of MAPK12 (human) (P53778 whole entry, looked up): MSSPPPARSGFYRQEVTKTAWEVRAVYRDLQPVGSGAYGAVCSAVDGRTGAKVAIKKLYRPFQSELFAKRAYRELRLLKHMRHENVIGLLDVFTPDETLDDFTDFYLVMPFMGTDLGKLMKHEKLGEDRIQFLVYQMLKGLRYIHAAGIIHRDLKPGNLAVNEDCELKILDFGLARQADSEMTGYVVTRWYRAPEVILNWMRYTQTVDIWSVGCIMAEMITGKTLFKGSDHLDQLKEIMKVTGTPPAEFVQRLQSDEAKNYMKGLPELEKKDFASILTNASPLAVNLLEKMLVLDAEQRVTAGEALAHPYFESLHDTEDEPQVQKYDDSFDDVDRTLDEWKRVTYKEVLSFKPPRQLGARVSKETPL
# ADRBK2 (human) = ADRBK2 (human) (UniProt P35626)
# DAPK1 (human) = DAPK1 (human) (UniProt P53355)
# MAP3K7 TAB1 (human) = MAP3K7 TAB1 (human) (UniProt O43318+Q15750)
# ULK1 (human) = ULK1 (human) (UniProt O75385)
# MST1R (human) = MST1R (human) (UniProt Q04912)
# RPS6KA6 KD1 KD2 (human) = RPS6KA6 KD1 KD2 (human) (UniProt Q9UK32)
# EPHB4 (human) = EPHB4 (human) (UniProt P54760)
# Chain of EPHB4 (human) (P54760 whole entry, looked up): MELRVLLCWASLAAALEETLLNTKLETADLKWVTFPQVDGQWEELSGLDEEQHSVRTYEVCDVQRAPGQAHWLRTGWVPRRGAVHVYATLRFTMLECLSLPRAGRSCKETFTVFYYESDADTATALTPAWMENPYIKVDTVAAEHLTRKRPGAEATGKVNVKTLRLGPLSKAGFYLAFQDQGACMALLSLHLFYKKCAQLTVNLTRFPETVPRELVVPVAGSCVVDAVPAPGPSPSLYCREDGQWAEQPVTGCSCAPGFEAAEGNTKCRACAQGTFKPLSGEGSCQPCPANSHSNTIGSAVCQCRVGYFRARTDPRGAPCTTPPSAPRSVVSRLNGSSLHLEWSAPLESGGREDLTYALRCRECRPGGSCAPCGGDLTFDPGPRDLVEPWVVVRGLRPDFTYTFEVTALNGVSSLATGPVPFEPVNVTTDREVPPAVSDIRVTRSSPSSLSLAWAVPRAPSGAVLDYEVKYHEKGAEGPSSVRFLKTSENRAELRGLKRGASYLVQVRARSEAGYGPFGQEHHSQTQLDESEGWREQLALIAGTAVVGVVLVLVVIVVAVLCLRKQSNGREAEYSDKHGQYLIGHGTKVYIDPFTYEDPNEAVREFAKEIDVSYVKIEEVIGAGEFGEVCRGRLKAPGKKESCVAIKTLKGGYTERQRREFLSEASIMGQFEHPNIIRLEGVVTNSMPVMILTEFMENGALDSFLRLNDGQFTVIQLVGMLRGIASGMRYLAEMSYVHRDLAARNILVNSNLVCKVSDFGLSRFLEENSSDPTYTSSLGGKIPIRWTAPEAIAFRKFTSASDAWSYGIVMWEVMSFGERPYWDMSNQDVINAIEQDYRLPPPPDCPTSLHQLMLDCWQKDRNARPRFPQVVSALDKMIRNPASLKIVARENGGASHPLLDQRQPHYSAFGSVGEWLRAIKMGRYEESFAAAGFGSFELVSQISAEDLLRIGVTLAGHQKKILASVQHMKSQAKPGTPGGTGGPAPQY
# TEK (human) = TEK (human) (UniProt Q02763)
# EPHA2 (human) = EPHA2 (human) (UniProt P29317)
# CAMK2D (human) = CAMK2D (human) (UniProt Q13557)
# DAPK3 (human) = DAPK3 (human) (UniProt O43293)
# Chain of DAPK3 (human) (O43293 whole entry, looked up): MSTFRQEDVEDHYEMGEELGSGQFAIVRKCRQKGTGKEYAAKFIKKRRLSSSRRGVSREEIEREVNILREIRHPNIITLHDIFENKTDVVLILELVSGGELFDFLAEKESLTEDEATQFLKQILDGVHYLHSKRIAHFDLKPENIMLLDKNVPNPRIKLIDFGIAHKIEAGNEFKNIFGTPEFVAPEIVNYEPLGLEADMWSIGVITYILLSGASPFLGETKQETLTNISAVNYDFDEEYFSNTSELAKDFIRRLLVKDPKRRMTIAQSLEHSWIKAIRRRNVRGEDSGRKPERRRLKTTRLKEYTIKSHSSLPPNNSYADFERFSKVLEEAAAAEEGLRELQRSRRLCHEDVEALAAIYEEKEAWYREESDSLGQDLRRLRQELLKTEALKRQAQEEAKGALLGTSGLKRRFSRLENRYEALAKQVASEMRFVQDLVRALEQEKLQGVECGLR
# HIPK3 (human) = HIPK3 (human) (UniProt Q9H422)
# NTRK1 (human) = NTRK1 (human) (UniProt P04629)
# PIM2 (human) = PIM2 (human) (UniProt Q9P1W9)
# SLK (human) = SLK (human) (UniProt Q9H2G2)
# EPHA4 (human) = EPHA4 (human) (UniProt P54764)
# NEK4 (human) = NEK4 (human) (UniProt P51957)
# CAMK2G (human) = CAMK2G (human) (UniProt Q13555)
# Chain of CAMK2G (human) (Q13555 whole entry, looked up): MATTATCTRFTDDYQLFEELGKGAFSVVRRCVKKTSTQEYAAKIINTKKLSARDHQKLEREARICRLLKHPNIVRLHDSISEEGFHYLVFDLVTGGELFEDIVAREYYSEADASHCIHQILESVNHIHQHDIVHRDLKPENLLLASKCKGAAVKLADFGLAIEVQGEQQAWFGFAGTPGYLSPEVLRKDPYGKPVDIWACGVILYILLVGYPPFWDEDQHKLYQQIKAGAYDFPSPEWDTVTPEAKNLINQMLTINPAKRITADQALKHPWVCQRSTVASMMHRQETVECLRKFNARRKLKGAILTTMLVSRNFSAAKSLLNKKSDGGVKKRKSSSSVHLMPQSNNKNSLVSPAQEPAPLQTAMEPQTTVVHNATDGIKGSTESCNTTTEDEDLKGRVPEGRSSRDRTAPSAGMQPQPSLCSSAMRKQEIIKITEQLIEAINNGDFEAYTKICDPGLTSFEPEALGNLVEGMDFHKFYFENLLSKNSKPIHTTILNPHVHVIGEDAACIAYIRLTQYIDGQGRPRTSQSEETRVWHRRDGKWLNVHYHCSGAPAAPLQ
# IKBKB (human) = IKBKB (human) (UniProt O14920)
# KIT (human) = KIT (human) (UniProt P10721)
# FER (human) = FER (human) (UniProt P16591)
# BRSK2 (human) = BRSK2 (human) (UniProt Q8IWQ3)
# PAK1 (human) = PAK1 (human) (UniProt Q13153)
# AKT1 (human) = AKT1 (human) (UniProt P31749)
# BLK (human) = BLK (human) (UniProt P51451)
# ROCK2 (human) = ROCK2 (human) (UniProt O75116)
# PRKCG (human) = PRKCG (human) (UniProt P05129)
# RPS6KA3 KD1 KD2 (human) = RPS6KA3 KD1 KD2 (human) (UniProt P51812)
# CDK2 CCNE1 (human) = CDK2 CCNE1 (human) (UniProt P24941+P24864)
# MYLK (human) = MYLK (human) (UniProt Q15746)
# Chain of MYLK (human) (Q15746 whole entry, looked up): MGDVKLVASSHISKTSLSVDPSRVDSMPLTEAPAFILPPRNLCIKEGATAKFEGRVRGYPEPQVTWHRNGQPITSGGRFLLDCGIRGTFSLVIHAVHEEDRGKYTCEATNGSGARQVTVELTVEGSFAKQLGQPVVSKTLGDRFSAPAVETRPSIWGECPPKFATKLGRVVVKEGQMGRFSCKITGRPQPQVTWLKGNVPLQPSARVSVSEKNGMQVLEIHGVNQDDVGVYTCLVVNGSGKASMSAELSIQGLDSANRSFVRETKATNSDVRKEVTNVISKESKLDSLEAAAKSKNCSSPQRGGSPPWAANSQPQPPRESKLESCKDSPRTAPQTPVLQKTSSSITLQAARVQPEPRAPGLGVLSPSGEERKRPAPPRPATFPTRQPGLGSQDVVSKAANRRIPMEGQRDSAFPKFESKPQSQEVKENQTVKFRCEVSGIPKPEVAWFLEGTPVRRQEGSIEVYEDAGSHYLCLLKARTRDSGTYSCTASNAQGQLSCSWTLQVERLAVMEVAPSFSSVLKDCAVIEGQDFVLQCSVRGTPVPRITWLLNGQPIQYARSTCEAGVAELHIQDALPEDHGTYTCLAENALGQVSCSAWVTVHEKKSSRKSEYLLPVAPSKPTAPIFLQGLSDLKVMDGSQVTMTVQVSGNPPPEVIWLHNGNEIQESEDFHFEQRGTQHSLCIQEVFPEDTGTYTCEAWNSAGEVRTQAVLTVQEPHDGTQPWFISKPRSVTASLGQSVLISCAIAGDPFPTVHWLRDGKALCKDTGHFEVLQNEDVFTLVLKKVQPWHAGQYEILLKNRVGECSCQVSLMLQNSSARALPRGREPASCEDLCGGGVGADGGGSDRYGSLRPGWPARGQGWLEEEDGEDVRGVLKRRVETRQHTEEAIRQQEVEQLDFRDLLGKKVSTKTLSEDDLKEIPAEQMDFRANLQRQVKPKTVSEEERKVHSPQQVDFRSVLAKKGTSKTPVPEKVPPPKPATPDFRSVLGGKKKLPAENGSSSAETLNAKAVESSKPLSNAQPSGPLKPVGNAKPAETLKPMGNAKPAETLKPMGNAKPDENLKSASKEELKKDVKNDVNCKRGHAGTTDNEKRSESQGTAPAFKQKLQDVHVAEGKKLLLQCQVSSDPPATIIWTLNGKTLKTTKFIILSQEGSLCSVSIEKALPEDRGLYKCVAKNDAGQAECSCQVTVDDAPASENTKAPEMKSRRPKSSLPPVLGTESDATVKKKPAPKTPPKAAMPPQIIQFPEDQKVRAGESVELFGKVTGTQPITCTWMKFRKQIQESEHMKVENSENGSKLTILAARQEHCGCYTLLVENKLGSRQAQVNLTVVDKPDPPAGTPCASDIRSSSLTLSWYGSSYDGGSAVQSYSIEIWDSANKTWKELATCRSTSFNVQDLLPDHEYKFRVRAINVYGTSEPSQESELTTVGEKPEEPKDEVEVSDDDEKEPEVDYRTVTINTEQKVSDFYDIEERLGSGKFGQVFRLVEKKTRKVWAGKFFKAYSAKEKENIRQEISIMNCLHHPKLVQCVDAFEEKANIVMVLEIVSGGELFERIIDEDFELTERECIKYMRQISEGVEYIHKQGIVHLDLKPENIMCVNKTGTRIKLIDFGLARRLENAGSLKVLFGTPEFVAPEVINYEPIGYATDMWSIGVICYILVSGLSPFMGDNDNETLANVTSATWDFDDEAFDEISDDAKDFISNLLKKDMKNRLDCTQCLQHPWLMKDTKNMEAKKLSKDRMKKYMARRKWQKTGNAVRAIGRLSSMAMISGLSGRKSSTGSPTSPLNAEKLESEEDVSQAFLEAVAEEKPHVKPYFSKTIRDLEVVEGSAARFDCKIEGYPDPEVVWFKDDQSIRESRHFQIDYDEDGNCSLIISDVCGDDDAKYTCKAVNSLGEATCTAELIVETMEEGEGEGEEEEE
# ACVR1B (human) = ACVR1B (human) (UniProt P36896)
# MATK (human) = MATK (human) (UniProt P42679)
# Chain of MATK (human) (P42679 whole entry, looked up): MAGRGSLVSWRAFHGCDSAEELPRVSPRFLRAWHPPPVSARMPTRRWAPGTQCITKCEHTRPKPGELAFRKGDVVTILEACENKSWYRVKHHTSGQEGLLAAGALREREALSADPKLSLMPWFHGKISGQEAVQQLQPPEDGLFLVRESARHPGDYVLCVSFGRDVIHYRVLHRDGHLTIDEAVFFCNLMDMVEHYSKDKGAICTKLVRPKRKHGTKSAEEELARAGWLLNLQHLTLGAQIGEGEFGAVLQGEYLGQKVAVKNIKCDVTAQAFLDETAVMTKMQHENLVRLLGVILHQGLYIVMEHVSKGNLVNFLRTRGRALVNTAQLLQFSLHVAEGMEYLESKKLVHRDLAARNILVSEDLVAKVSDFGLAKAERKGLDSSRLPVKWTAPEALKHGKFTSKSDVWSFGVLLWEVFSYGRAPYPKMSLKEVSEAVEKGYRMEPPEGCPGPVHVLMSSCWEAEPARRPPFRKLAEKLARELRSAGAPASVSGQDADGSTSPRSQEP
# STK39 (human) = STK39 (human) (UniProt Q9UEW8)
smiles,measurement,setting,value
N#C/C(=C\c1ccc(O)c(O)c1)C(=O)NCc1ccccc1,residual activity,EPHB3 (human),101%
same,residual activity,TEC (human),123%
same,residual activity,[1],87.7%
same,residual activity,INSR (human),93.8%
same,residual activity,RET (human),108%
same,residual activity,CDK1 CCNA2 (human),92.8%
same,residual activity,NEK1 (human),97.3%
same,residual activity,FGFR4 (human),84.2%
same,residual activity,MAPK12 (human),94.2%
same,residual activity,ADRBK2 (human),91.4%
same,residual activity,DAPK1 (human),99.7%
same,residual activity,MAP3K7 TAB1 (human),98.1%
same,residual activity,ULK1 (human),92.9%
same,residual activity,MST1R (human),102%
same,residual activity,RPS6KA6 KD1 KD2 (human),108%
same,residual activity,EPHB4 (human),88.2%
same,residual activity,TEK (human),95.1%
same,residual activity,EPHA2 (human),105%
same,residual activity,CAMK2D (human),104%
same,residual activity,DAPK3 (human),86.5%
same,residual activity,HIPK3 (human),96.6%
same,residual activity,NTRK1 (human),98.4%
same,residual activity,PIM2 (human),97.1%
same,residual activity,SLK (human),99.1%
same,residual activity,EPHA4 (human),99.5%
same,residual activity,NEK4 (human),98.6%
same,residual activity,CAMK2G (human),94.1%
same,residual activity,IKBKB (human),103%
same,residual activity,KIT (human),93.9%
same,residual activity,FER (human),86.2%
same,residual activity,BRSK2 (human),99.3%
same,residual activity,PAK1 (human),97.7%
same,residual activity,AKT1 (human),101%
same,residual activity,BLK (human),95.6%
same,residual activity,ROCK2 (human),94%
same,residual activity,PRKCG (human),97.2%
same,residual activity,RPS6KA3 KD1 KD2 (human),100%
same,residual activity,CDK2 CCNE1 (human),96.4%
same,residual activity,MYLK (human),94.5%
same,residual activity,ACVR1B (human),98%
same,residual activity,MATK (human),86.3%
same,residual activity,STK39 (human),99.8%
CN(C)S(=O)(=O)c1ccc2c(c1)/C(=C/c1cc3c([nH]1)CCCC3)C(=O)N2,residual activity,EPHB3 (human),105%
same,residual activity,TEC (human),116%
same,residual activity,[1],78.1%
same,residual activity,INSR (human),91.6%
same,residual activity,RET (human),6.29%
same,residual activity,CDK1 CCNA2 (human),70.6%
same,residual activity,NEK1 (human),93.1%
same,residual activity,FGFR4 (human),92.9%
same,residual activity,MAPK12 (human),103%
same,residual activity,ADRBK2 (human),97%
same,residual activity,DAPK1 (human),102%
same,residual activity,MAP3K7 TAB1 (human),89%
same,residual activity,ULK1 (human),6.13%
same,residual activity,MST1R (human),101%
same,residual activity,RPS6KA6 KD1 KD2 (human),67.4%
same,residual activity,EPHB4 (human),85.8%
same,residual activity,TEK (human),95.4%
same,residual activity,EPHA2 (human),96.5%
same,residual activity,CAMK2D (human),73.2%
same,residual activity,DAPK3 (human),94.4%
same,residual activity,HIPK3 (human),107%
same,residual activity,NTRK1 (human),24.7%
same,residual activity,PIM2 (human),108%
same,residual activity,SLK (human),23.4%
same,residual activity,EPHA4 (human),91.3%
same,residual activity,NEK4 (human),99.9%
same,residual activity,CAMK2G (human),98.9%
same,residual activity,IKBKB (human),107%
same,residual activity,KIT (human),60.7%
same,residual activity,FER (human),51.8%
same,residual activity,BRSK2 (human),48.7%
same,residual activity,PAK1 (human),96.1%
same,residual activity,AKT1 (human),107%
same,residual activity,BLK (human),13.9%
same,residual activity,ROCK2 (human),88.2%
same,residual activity,PRKCG (human),86.8%
same,residual activity,RPS6KA3 KD1 KD2 (human),70.1%
same,residual activity,CDK2 CCNE1 (human),85.5%
same,residual activity,MYLK (human),97.2%
same,residual activity,ACVR1B (human),105%
same,residual activity,MATK (human),104%
same,residual activity,STK39 (human),99.5%
